Test results: paper PMC11362529, “Exploring the neuroprotective potential of Nrf2-pathway activators against annonacin toxicity” (Scientific Reports, 2024)

Tests used:
[1] = tested on: LUHMES cells; assay: Intracellular ATP levels (ViaLight plus kit); format: cell-based, human; settings: for intracellular ATP levels: protective concentration of compound + 20 nM annonacin, 24 h
Method: Mitochondrial activity was estimated by the reduction of MTT (3-(4,5-dimethylthiazol-2-yl)-2,5-diphenyltetrazolium, Sigma-Aldrich). Briefly, LUHMES cells were seeded on PLO/FN-coated 48-well microplates, in triplicates. After a 24 h treatment with 20 nM of annonacin and the protective concentrations of Nrf2-pathway activators in glucose-reduced medium, cells were incubated with 0.5 mg/ml of MTT dissolved in PBS, at 37 °C for 30 min. After that, the medium was removed and the plate was frozen at -80 °C for 1 h, for cell lysing. Next, the plate was thawed and the MTT crystals were completely dissolved in 250 µl of DMSO with vigorous shaking. The absorbance was measured on a FLUOstar® Omega plate reader at λ = 590 nm, using λ = 630 nm absorbance as a background correction. The obtained results were analyzed with the MARS data analysis software (BMG LabTech). After background subtraction, the data were expressed as a percentage of MTT reduction relative to the control (DMSO-treated) condition. Determination of cellular ATP levels was done by using the ViaLight™ plus kit (Lonza, Basel, Switzerland), following the manufacturer’s instructions. Cells were seeded on PLO/FN-coated 48-well microplates and the pharmacological treatments were done similarly as to the assessment of the MTT reduction. On the next day, the medium was removed and cells were washed once with warm HBSS and rested in 210 µl HBSS. The plate was left to reach RT before adding 70 µl cell lysis reagent to each well, provided by the kit. After a 10 min incubation, 10 µl of each lysed cell extract was transferred to a 384-well white plate and combined with 10 µl of ATP monitoring reagent plus. The plate was incubated in the dark for 10 min at RT before the luminescence signal was measured on a FLUOstar® Omega plate reader. The obtained results were analyzed with the MARS data analysis software (BMG LabTech) and expressed as RLUs. For background correction, the RLUs detected for the background control (i.e., 10 µl of ATP monitoring reagent plus combined with 10 µl of cell lysis reagent) were subtracted from the measured RLUs values of all testing conditions.

[2] = tested on: LUHMES cells; assay: Protective effects against annonacin toxicity, calcein viability assay; format: cell-based, human; settings: with 20 nM annonacin, glucose-reduced medium, 48 h; 40 μM Ki 696–2, 1 μM HPP-D, 15 μM ezetimibe, 4 μM licochalcone A; most protective or highest non-toxic concentration for the others
Method: The calcein AM green dye (Thermo Fisher Scientific) was diluted in DMSO to obtain a 1 mM stock solution. The stock solution was further diluted in HBSS (Hanks' balanced salt solution), immediately before incubation, to achieve a final working concentration of 1 μM in the well. The medium was removed, the cells were washed once with warm HBSS, and 200 µl of calcein working solution was added to each well. For background correction, 200 µl of calcein working solution was added to a well without cells (background control). After 30 min of incubation at 37 °C, the calcein solution was removed and the cells were washed once with HBSS. Cells were lysed in a 200 µl volume of 1% Triton™ X-100 in PBS (phosphate buffered saline) and the lysate transferred to a 96‐well black plate for the readout. The fluorescence signal was measured on a FLUOstar® Omega plate reader (BMG LabTech, Ortenberg, Germany) at λ Ex/Em = 485/530 nm and data was analyzed with the MARS data analysis software (BMG LabTech). For background correction, we subtracted the background control signal from the measured values of all experimental conditions. Data were expressed as percentage of viability relative to the control (DMSO-treated) condition.
For pharmacological treatments, we acquired several previously described Nrf2-pathway activators: ezetimibe (Cayman), licochalcone A (MedChem Express, New Jersey, NJ, USA), bardoxolone methyl, saracatinib and PP2 (AbMole BioScience Inc., Houston, TX, USA). The enantiomers Ki 696–1 and Ki 696–2, and the compound HPP-D were kindly provided by Orion Pharma (Espoo, Finland). All compounds were dissolved in DMSO and stored in small aliquots at -80 °C to avoid freeze–thaw cycles. Compound general toxicity was determined on PLO/FN double-coated 48-well microplates as follows: after 4 days of differentiation, LUHMES cells were incubated with the different Nrf2-pathway activators at concentrations ranging from 1 nM to 100 µM, for 96 h. The cell viability was assessed by calcein assay on day 8 of differentiation. Non-toxic concentrations of the Nrf2-pathway activators were selected and used in the pharmacological treatments, in combination with 20 nM of annonacin, in glucose-reduced differentiation medium, over a period of 48 h, similar to an in vitro model reported before. The protective effects of Nrf2-pathway activators against annonacin toxicity were determined in terms of cell viability with the calcein assay.

Row | Compound | ATP production ([1]; annonacin alone) | reduction of annonacin toxicity [2] [%] | intracellular ATP levels [1]
1 | CCCCCCCCCCCC[C@@H](O)[C@H]1CC[C@H]([C@H](O)CCCC[C@H](O)CCCCC[C@@H](O)CC2=CC(C)OC2=O)O1 (stereo partly shown) [annonacin] | impaired ATP production |  | 
2 | O=C1[C@H](CC[C@H](O)c2ccc(F)cc2)[C@@H](c2ccc(O)cc2)N1c1ccc(F)cc1 [ezetimibe] |  | 33 | lower intracellular ATP levels
3 | C=CC(C)(C)c1cc(/C=C/C(=O)c2ccc(O)cc2)c(OC)cc1O [licochalcone A] |  | 34.6 | lower intracellular ATP levels
4 | Cn1c(Nc2nc3ccc(C(F)(F)F)cc3s2)nc2cc(C(=O)NCCOCCO)ccc21 [HPP-D] |  | 21 | intracellular ATP levels no longer statistically different from healthy control cells
